Patent EP1401467B3, “ALPHA-FETOPROTEIN PEPTIDES AND USES THEREOF” (Albany Medical College, priority 2001, dated 2003)
Entries after “also recorded” stand apart in the source; their conditions may differ. Square brackets hold non-standard residues; d marks the D form. Peptide text beside a SMILES is read from it. Hyp = O=C(O)[C@@H]1C[C@@H](O)CN1

Legend:
estrogen receptor = target: T1, estrogen receptor (Oryctolagus cuniculus, UniProt G1SML6); conditions: at a concentration of 100 nM; rabbit uterine cytosol
T1 sequence (G1SML6 1-598): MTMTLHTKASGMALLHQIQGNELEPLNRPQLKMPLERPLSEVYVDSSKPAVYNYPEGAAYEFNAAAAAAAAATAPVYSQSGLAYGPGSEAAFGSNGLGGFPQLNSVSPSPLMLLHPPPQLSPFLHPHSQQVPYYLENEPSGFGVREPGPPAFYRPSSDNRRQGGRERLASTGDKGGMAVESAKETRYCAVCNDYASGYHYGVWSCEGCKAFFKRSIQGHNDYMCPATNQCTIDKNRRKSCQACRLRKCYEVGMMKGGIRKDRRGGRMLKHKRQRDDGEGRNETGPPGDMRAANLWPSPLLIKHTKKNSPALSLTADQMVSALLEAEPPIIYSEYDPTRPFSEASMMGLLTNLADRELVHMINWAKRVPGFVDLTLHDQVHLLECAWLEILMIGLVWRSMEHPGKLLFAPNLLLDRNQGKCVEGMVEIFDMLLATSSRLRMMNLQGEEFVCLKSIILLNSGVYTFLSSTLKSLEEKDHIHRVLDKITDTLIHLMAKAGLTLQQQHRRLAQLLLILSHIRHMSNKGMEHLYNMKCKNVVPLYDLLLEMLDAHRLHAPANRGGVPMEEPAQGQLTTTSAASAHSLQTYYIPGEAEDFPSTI
Protocol: (§1) Peptide or vehicle control was injected i.p. into immature female Swiss mice. One hour later 0.5 µg of E2 or vehicle control was injected i.p. into these mice. Twenty-two hours later, uteri were dissected and weighed. Percent inhibition of E2-stimulated growth of uterus by peptide was calculated as described in Materials and Methods. There were five to eight replicate mice per treatment group. (Figure 1a) Peptide dose-response. […] Peptide, SEQ ID NO:2: […], was fractionated using a Waters SW 200 gel-filtration column using phosphate buffered saline pH 7.4 as mobil phase. Fractions which had significant UV absorbance at 230 nm were collected at twenty second intervals. The first fraction (Frac I), the last fraction (Frac III), and the starting material (UnFrac) were all tested in the immature mouse uterine growth assay as described in Figures 1a and 1b. […] (Figure 3a) dose-response. […] (Figure 4a) dose-response. […] There were five to eight replicate mice per treatment group. Estrogen was provided via a slow release pellet implanted subcutaneously. Peptide was given twice a day i.p. at a dose of 1 µg per mouse. Tumor volumes in each mouse were measured at the time of tumor implantation and at 10-day intervals thereafter during survival laparotomies. […] (Figure 6a) dose-response. […] Experimental protocol is described in legend to Figure 5 and Materials and Methods. […] Rabbit uterine cytosol was used as a source of estrogen receptor. All incubations were performed in triplicate, each containing 100 µl of cytosol, 20 µl of 10 nM 6,7-^3Hestradiol (50 Ci/mmol), and 80 µl of test agent at the final concentrations indicated on the abscissa. Details of the assay are described in Materials and Methods. • Concentration of [^3H] E2-complex with receptor in the presence of different concentrations of test agent is expressed as a percentage of the amount of complex formed in the absence of test agent; • Figures 9a and 9b illustrate the effect of AFP-derived peptide on growth of estrogen-receptor-positive MCF-7 and MCF-7/Tam.human breast cancer xenografts. Tumors were implanted as described in Materials and Methods. […] Tumor volumes in each mouse were measured at the time of tumor implantation, again at day 15 after tumor implantation during survival laparotomy and again at day 30 after tumor implantation during necropsy. There was a minimum of 5 mice per group. (Figure 9a) MCF-7 tumors. […] See legend to Figures 9a and 9b for experimental protocol. […] See legend to Figures 9a and 9b for experimental protocol. […] Rabbit uterine cytosol was used as a source of estrogen receptor. All incubations were performed in triplicate, each containing 100 µl of cytosol, 20 µl of 10 nM 6,7-^3H estradiol (50 Ci/mmol), and 80 µl of test agent at the final concentrations indicated on the abscissa. Concentration of [^3H] […] The assay procedure is described in the Materials and Methods.

[1] = mouse, in vivo
[2] = system: MCF-7 human breast cancer xenografts; assay: Human breast cancer xenograft assay, MCF-7; format: in vivo; conditions: E2 implant, 30-day observation
Protocol: Peptide or vehicle control was injected i.p. into immature female Swiss mice. One hour later 0.5 µg of E2 or vehicle control was injected i.p. into these mice. Twenty-two hours later, uteri were dissected and weighed. Percent inhibition of E2-stimulated growth of uterus by peptide was calculated as described in Materials and Methods. There were five to eight replicate mice per treatment group. (Figure 1a) Peptide dose-response. […] Peptide, SEQ ID NO:2: […], was fractionated using a Waters SW 200 gel-filtration column using phosphate buffered saline pH 7.4 as mobil phase. Fractions which had significant UV absorbance at 230 nm were collected at twenty second intervals. The first fraction (Frac I), the last fraction (Frac III), and the starting material (UnFrac) were all tested in the immature mouse uterine growth assay as described in Figures 1a and 1b. […] (Figure 3a) dose-response. […] (Figure 4a) dose-response. […] There were five to eight replicate mice per treatment group. Estrogen was provided via a slow release pellet implanted subcutaneously. Peptide was given twice a day i.p. at a dose of 1 µg per mouse. Tumor volumes in each mouse were measured at the time of tumor implantation and at 10-day intervals thereafter during survival laparotomies. […] (Figure 6a) dose-response. […] Experimental protocol is described in legend to Figure 5 and Materials and Methods. […] Rabbit uterine cytosol was used as a source of estrogen receptor. […] E2-complex with receptor in the presence of different concentrations of test agent is expressed as a percentage of the amount of complex formed in the absence of test agent; • Figures 9a and 9b illustrate the effect of AFP-derived peptide on growth of estrogen-receptor-positive MCF-7 and MCF-7/Tam.human breast cancer xenografts. […] Tumor volumes in each mouse were measured at the time of tumor implantation, again at day 15 after tumor implantation during survival laparotomy and again at day 30 after tumor implantation during necropsy. […]

[3] = system: E2-stimulated growth of immature mouse uterus; conditions: for dose of maximal inhibitory activity on estrogen-stimulated growth of immature mouse uterus: i.p., dose-response
Protocol: as §1

[4] = Shelf-life / storage studies of lyophilized peptide, read out in the immature mouse uterine growth assay; format: physicochemical; conditions: for shelf-life: storage in the lyophilized state at -20°C, activity tested in immature mouse uterine growth assay
Protocol: Peptide or vehicle control was injected i.p. into immature female Swiss mice. One hour later 0.5 µg of E2 or vehicle control was injected i.p. into these mice. Twenty-two hours later, uteri were dissected and weighed. Percent inhibition of E2-stimulated growth of uterus by peptide was calculated as described in Materials and Methods. There were five to eight replicate mice per treatment group. (Figure 1a) Peptide dose-response. […] Peptide, SEQ ID NO:2: […], was fractionated using a Waters SW 200 gel-filtration column using phosphate buffered saline pH 7.4 as mobil phase. Fractions which had significant UV absorbance at 230 nm were collected at twenty second intervals. The first fraction (Frac I), the last fraction (Frac III), and the starting material (UnFrac) were all tested in the immature mouse uterine growth assay as described in Figures 1a and 1b. […] (Figure 3a) dose-response. […] (Figure 4a) dose-response. […] There were five to eight replicate mice per treatment group. Estrogen was provided via a slow release pellet implanted subcutaneously. Peptide was given twice a day i.p. at a dose of 1 µg per mouse. Tumor volumes in each mouse were measured at the time of tumor implantation and at 10-day intervals thereafter during survival laparotomies. […] (Figure 6a) dose-response. […] Experimental protocol is described in legend to Figure 5 and Materials and Methods. […] Rabbit uterine cytosol was used as a source of estrogen receptor. All incubations were performed in triplicate, each containing 100 µl of cytosol, 20 µl of 10 nM 6,7-^3Hestradiol (50 Ci/mmol), and 80 µl of test agent at the final concentrations indicated on the abscissa. Details of the assay are described in Materials and Methods. • Concentration of [^3H] E2-complex with receptor in the presence of different concentrations of test agent is expressed as a percentage of the amount of complex formed in the absence of test agent; • Figures 9a and 9b illustrate the effect of AFP-derived peptide on growth of estrogen-receptor-positive MCF-7 and MCF-7/Tam.human breast cancer xenografts. Tumors were implanted as described in Materials and Methods. […] Tumor volumes in each mouse were measured at the time of tumor implantation, again at day 15 after tumor implantation during survival laparotomy and again at day 30 after tumor implantation during necropsy. There was a minimum of 5 mice per group. (Figure 9a) MCF-7 tumors. […] See legend to Figures 9a and 9b for experimental protocol. […] See legend to Figures 9a and 9b for experimental protocol. […] Rabbit uterine cytosol was used as a source of estrogen receptor. All incubations were performed in triplicate, each containing 100 µl of cytosol, 20 µl of 10 nM 6,7-^3H estradiol (50 Ci/mmol), and 80 µl of test agent at the final concentrations indicated on the abscissa. […]

[5] = system: MCF-7/Tam human breast cancer xenografts; assay: Human breast cancer xenograft assay, tamoxifen-resistant MCF-7 subline; format: in vivo; conditions: tamoxifen 50 µg per mouse i.p. once a day; E2 implant; day 30
Protocol: Peptide or vehicle control was injected i.p. into immature female Swiss mice. One hour later 0.5 µg of E2 or vehicle control was injected i.p. into these mice. Twenty-two hours later, uteri were dissected and weighed. Percent inhibition of E2-stimulated growth of uterus by peptide was calculated as described in Materials and Methods. There were five to eight replicate mice per treatment group. (Figure 1a) Peptide dose-response. […] Peptide, SEQ ID NO:2: […], was fractionated using a Waters SW 200 gel-filtration column using phosphate buffered saline pH 7.4 as mobil phase. Fractions which had significant UV absorbance at 230 nm were collected at twenty second intervals. […] Tumor volumes in each mouse were measured at the time of tumor implantation and at 10-day intervals thereafter during survival laparotomies. […] E2-complex with receptor in the presence of different concentrations of test agent is expressed as a percentage of the amount of complex formed in the absence of test agent; • Figures 9a and 9b illustrate the effect of AFP-derived peptide on growth of estrogen-receptor-positive MCF-7 and MCF-7/Tam.human breast cancer xenografts. […] Tumor volumes in each mouse were measured at the time of tumor implantation, again at day 15 after tumor implantation during survival laparotomy and again at day 30 after tumor implantation during necropsy. […]

[6] = system: T47D human breast cancer xenografts; assay: Human breast cancer xenograft assay, T47D; format: in vivo; conditions: tamoxifen
[7] = system: MDA-MB-231 human breast cancer xenografts; assay: Human breast cancer xenograft assay, MDA-MB-231; format: in vivo; conditions: tamoxifen 50 µg per mouse i.p. once a day
[8] = system: MCF-7 human breast cancer xenografts; conditions: earlier study (Bennett et al. 1998); cited from earlier work

O=C(c1ccc(OCCN2CCCCC2)cc1)c1c(-c2ccc(O)cc2)sc2cc(O)ccc12 [raloxifene]
inhibition of estradiol binding to its receptor (estrogen receptor): completely inhibited

CSCC[C@H](NC(=O)[C@@H](N)CCC(=O)O)C(=O)N[C@H](C(=O)N1C[C@H](O)C[C@H]1C(=O)N[C@H](C(=O)N[C@@H](CC(N)=O)C(=O)N1C[C@H](O)C[C@H]1C(=O)NCC(N)=O)C(C)C)[C@@H](C)O [SEQ ID NO:4: EMTOVNOG, EMTOVNOG] (H-EMT[Hyp]VN[Hyp]G-NH2)
biological half-life [1]: two to three

CSCC[C@@H]1NC(=O)[C@H](CCC(=O)O)NC(=O)[C@H](CCC(N)=O)NC(=O)CNC(=O)[C@@H]2C[C@@H](O)CN2C(=O)[C@H](CC(N)=O)NC(=O)[C@H](C(C)C)NC(=O)[C@@H]2C[C@@H](O)CN2C(=O)[C@H]([C@@H](C)O)NC1=O [Cyclo-(SEQ ID NO:5: EMTOVNOGQ), Cyclo-(EMTOVNOGQ)] (cyclo(EMT[Hyp]VN[Hyp]GQ))
estrogen-dependent growth of MCF-7 human breast cancer xenografts (tumor volume vs E2 alone) ([2]; peptide 1 µg per mouse i.p. twice a day, SCID mice): significantly inhibited
anti-estrotrophic activity ([3]; at doses higher than 10 µg/mouse): retained significant anti-estrotrophic activity
dose of maximal inhibitory activity on estrogen-stimulated growth of immature mouse uterus [3]: 10 µg per mouse
shelf-life [4]: Indefinite shelflife; also recorded: indefinite shelf-life

CC/C(=C(\c1ccccc1)c1ccc(OCCN(C)C)cc1)c1ccccc1 [tamoxifen]
estrogen-dependent growth of MCF-7 human breast cancer xenografts (tumor volume vs E2 alone) ([2]; tamoxifen 50 µg per mouse i.p. once a day): prevented growth; also recorded: no increase in tumor volume
estrogen-dependent growth of MCF-7 human breast cancer xenografts (tumor volume vs E2 alone) ([2]; tamoxifen 50 µg per mouse i.p. once a day, listed as Tamoxifen): significantly different
growth of tamoxifen-resistant MCF-7 subline xenografts (tumor volume vs E2 alone) [5]: resistant to tamoxifen in vivo; also recorded: only minimally effective
growth of ER+ T47D human breast cancer xenografts [6]: prevented growth
growth of ER- MDA-MB-231 human breast cancer xenografts [7]: Neither peptide nor tamoxifen were effective; also recorded: did not affect the growth
MCF-7 breast cancer xenograft growth [8]: stop MCF-7 breast cancer xenograft growth

CSCC[C@@H]1NC(=O)[C@H](CCC(=O)O)NC(=O)[C@H](CCC(N)=O)NC(=O)CNC(=O)[C@@H]2CCCN2C(=O)[C@H](CC(N)=O)NC(=O)[C@H](C(C)C)NC(=O)[C@@H]2CCCN2C(=O)[C@H]([C@@H](C)O)NC1=O (cyclo(EMTPVNPGQ))
inhibition of estrogen-stimulated growth of immature mouse uterus ([3]; at the optimal dose of the linear peptides (1 µg)): very active
dose of maximal inhibitory activity on estrogen-stimulated growth of immature mouse uterus [3]: 10 µg per mouse
biological activity after prolonged storage ([4]; after storage of six months): significant, albeit not optimal, biological activity
shelf-life [4]: somewhat extended but still rather limited shelf-life
biological activity after treatment with 4 M urea ([4]; stored/aged peptide, brief treatment with 4 M urea): restored the optimal biological activity
